From ChEMBL document CHEMBL1201862, “PubChem BioAssay data set” (2004)
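Test compounds were applied to cells in 96-well plates for 48 hours at 5 doses. GI50 = concentration required for 50% inhibition of growth.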 The source made the active and inactive calls. No stated cut-off is given here; in the data, active = GI50 up to about 1.1 µM and inactive = higher.

Tests used:
Test in all cases: NCI-60 cell line screen, 48 h
[1] = system: OVCAR-3
[2] = system: K562
[3] = system: A549
[4] = system: SK-MEL-2
[5] = system: NCI-H226
[6] = system: Malme-3M
[7] = system: HT-29
[8] = system: Hs-578T
[9] = system: EKVX
[10] = system: HOP-92
[11] = system: SK-MEL-5
[12] = system: U-251
[13] = system: UACC-257
[14] = system: HCT-15
[15] = system: SF-268
[16] = system: UO-31
[17] = system: SW-620
[18] = system: MCF7
[19] = system: SK-MEL-28
[20] = system: HOP-62

Row | Structure (SMILES) | GI50 [1] | GI50 [2] | GI50 [3] | GI50 [4] | GI50 [5] | GI50 [6] | GI50 [7] | GI50 [8] | GI50 [9] | GI50 [10] | GI50 [11] | GI50 [12] | GI50 [13] | GI50 [14] [µM] | GI50 [15] | GI50 [16] | GI50 [17] | GI50 [18] | GI50 [19] | GI50 [20]
1 | O=C(SCc1cccc2ccccc12)c1ccc(Cl)cc1 | 44.4 µM (inactive) | 48.4 µM (inactive) | > 100 µM (inactive) | > 100 µM (inactive) | > 100 µM (inactive) | 96.6 µM (inactive) | 54.2 µM (inactive) | 79.3 µM (inactive) | 80 µM (inactive) | 18.8 µM (inactive) | 45.2 µM (inactive) | > 100 µM (inactive) | 76.7 µM (inactive) | 50.9 | 80.4 µM (inactive) | > 100 µM (inactive) | > 100 µM (inactive) | > 100 µM (inactive) | > 100 µM (inactive) | > 100 µM (inactive)
2 | O=C(OCc1ccccc1)c1ccc(NCc2cc(O)ccc2O)cc1 | 1 µM (active) | 1.29 µM (inactive) | 3.9 µM (inactive) | 2.05 µM (inactive) | 2.42 µM (inactive) | 1.56 µM (inactive) | 6.24 µM (inactive) | 1.51 µM (inactive) | 1.75 µM (inactive) | 0.867 µM (active) | 1.52 µM (inactive) | 1.29 µM (inactive) | 1.6 µM (inactive) | 1.03 | 1.36 µM (inactive) | 1.32 µM (inactive) | 1.67 µM (inactive) | 2.01 µM (inactive) | 1.63 µM (inactive) | 7.43 µM (inactive)
3 | COC(=O)[C@H](Cc1ccccc1)NP(=O)(O)OCC1OC(n2cc(C)c(=O)[nH]c2=O)CC1N=[N+]=[N-] (stereo not given in full) | > 100 µM (inactive) | > 100 µM (inactive) | > 100 µM (inactive) | > 100 µM (inactive) | > 100 µM (inactive) | > 100 µM (inactive) | > 100 µM (inactive) | > 100 µM (inactive) | > 100 µM (inactive) | > 100 µM (inactive) | > 100 µM (inactive) | > 100 µM (inactive) | > 100 µM (inactive) | > 100 | > 100 µM (inactive) | > 100 µM (inactive) | > 100 µM (inactive) | > 100 µM (inactive) | > 100 µM (inactive) | > 100 µM (inactive)
4 | O=C(N/N=C/c1ccccc1)c1cccc2nc3ccccc3nc12 | > 100 µM (inactive) | > 100 µM (inactive) | 3.81 µM (inactive) | > 100 µM (inactive) | 38.7 µM (inactive) | > 100 µM (inactive) | 46.3 µM (inactive) | 18.7 µM (inactive) | > 39.3 µM (inactive) | > 69.2 µM (inactive) | 3.19 µM (inactive) | > 100 µM (inactive) | > 100 µM (inactive) | 9.66 | > 80.2 µM (inactive) | > 100 µM (inactive) | > 100 µM (inactive) | > 45 µM (inactive) | > 100 µM (inactive) | 4.15 µM (inactive)
5 | O=C(O)CNC(=O)C1NC(C(F)(F)F)(C(F)(F)F)OC1(C(F)(F)F)C(F)(F)F (stereo not given) | > 100 µM (inactive) | > 100 µM (inactive) | > 100 µM (inactive) | > 100 µM (inactive) | > 100 µM (inactive) | > 100 µM (inactive) | > 100 µM (inactive) | > 100 µM (inactive) | > 100 µM (inactive) | > 100 µM (inactive) | > 100 µM (inactive) | > 100 µM (inactive) | > 100 µM (inactive) | > 100 | > 100 µM (inactive) | > 100 µM (inactive) | > 100 µM (inactive) | > 100 µM (inactive) | > 100 µM (inactive) | > 100 µM (inactive)
6 | CC(/C=N\NC(=S)N1CCCCC1)=N/NC(=S)N1CCCCC1 | 1.53 µM (inactive) | 1.12 µM (active) | 0.692 µM (active) | 1.28 µM (inactive) | 1.09 µM (active) | 2.15 µM (inactive) | 0.931 µM (active) | 1.41 µM (inactive) | 1.88 µM (inactive) | 2.38 µM (inactive) | 1.23 µM (inactive) | 0.815 µM (active) | 2.94 µM (inactive) | 0.42 | 1.05 µM (active) | 0.649 µM (active) | 0.935 µM (active) | 1.48 µM (inactive) | 4.49 µM (inactive) | 0.991 µM (active)
7 | S=C(NN=C1NCCCN1)Nc1ccccc1 | > 100 µM (inactive) | 99.5 µM (inactive) | > 100 µM (inactive) | > 100 µM (inactive) | > 100 µM (inactive) | > 100 µM (inactive) | > 100 µM (inactive) | > 100 µM (inactive) | > 100 µM (inactive) | > 100 µM (inactive) | > 100 µM (inactive) | > 100 µM (inactive) | > 100 µM (inactive) | > 100 | > 100 µM (inactive) | > 100 µM (inactive) | > 100 µM (inactive) | > 100 µM (inactive) | > 100 µM (inactive) | > 100 µM (inactive)
8 | CCOC(=O)c1cn(CC)c2ccc3c(c2c1=O)S(=O)(=O)C=C3 | > 100 µM (inactive) | > 100 µM (inactive) | > 100 µM (inactive) | 52.5 µM (inactive) | 63.7 µM (inactive) | > 100 µM (inactive) | > 100 µM (inactive) | 52.6 µM (inactive) | > 100 µM (inactive) | > 100 µM (inactive) | > 100 µM (inactive) | > 100 µM (inactive) | > 100 µM (inactive) | > 100 | > 100 µM (inactive) | 60.1 µM (inactive) | > 100 µM (inactive) | > 100 µM (inactive) | > 100 µM (inactive) | > 100 µM (inactive)
9 | N=C(N)NC(=N)Nc1c(F)c(F)c(F)c(F)c1F | > 100 µM (inactive) | 41.5 µM (inactive) | > 100 µM (inactive) | > 100 µM (inactive) | > 100 µM (inactive) | 69 µM (inactive) | 96.8 µM (inactive) | 95.3 µM (inactive) | 44.1 µM (inactive) | 36.7 µM (inactive) | 44.8 µM (inactive) | > 100 µM (inactive) | 23.6 µM (inactive) | > 100 | > 100 µM (inactive) | > 100 µM (inactive) | > 100 µM (inactive) | 49.4 µM (inactive) | > 100 µM (inactive) | > 100 µM (inactive)
10 | O=C1C(=Cc2ccccc2[N+](=O)[O-])N=C(c2ccccc2)N1n1c(-c2ccccc2)nc2ccccc2c1=O | 29 µM (inactive) | 31.8 µM (inactive) | 35.7 µM (inactive) | 29.4 µM (inactive) | 32.5 µM (inactive) | 25.1 µM (inactive) | 32.1 µM (inactive) | 20.6 µM (inactive) | 33.4 µM (inactive) | 15.2 µM (inactive) | 31.5 µM (inactive) | 30 µM (inactive) | 24.8 µM (inactive) | 24.5 | 30.3 µM (inactive) | 32.4 µM (inactive) | 32.7 µM (inactive) | 17.5 µM (inactive) | 30.9 µM (inactive) | 28.6 µM (inactive)
11 | C/C(=N/NC(=S)Nc1cccc(Cl)c1)c1ccccn1 | 0.0365 µM (active) | 0.0324 µM (active) | 0.802 µM (active) | 1.2 µM (inactive) | 0.213 µM (active) | 0.301 µM (active) | 0.0488 µM (active) | 0.429 µM (active) | 0.0977 µM (active) | 1.18 µM (inactive) | 0.37 µM (active) | 0.0885 µM (active) | < 0.0208 µM (active) | 0.0588 | 0.142 µM (active) | 0.269 µM (active) | 0.0324 µM (active) | 0.0151 µM (active) | 2.21 µM (inactive) | 0.453 µM (active)
12 | CC(C)(Oc1ccc(Cl)cc1)C(=O)N(C(=O)N1CCC(c2ccccc2)CC1)c1ccccc1 | > 73.5 µM (inactive) | 4.2 µM (inactive) | 34.5 µM (inactive) | > 59.7 µM (inactive) | > 61 µM (inactive) | 25.4 µM (inactive) | 22.5 µM (inactive) | > 73.8 µM (inactive) | 11.1 µM (inactive) | > 100 µM (inactive) | 4.94 µM (inactive) | > 25.2 µM (inactive) | 11 µM (inactive) | 9.89 | > 100 µM (inactive) | 22.4 µM (inactive) | 22.4 µM (inactive) | 23.7 µM (inactive) | > 100 µM (inactive) | > 100 µM (inactive)
13 | COc1cc2cc3c4cc(OC)c(OC)cc4cc[n+]3c(C)c2cc1OC.O=C([O-])CS(=O)(=O)O | 78.9 µM (inactive) | 61.1 µM (inactive) | > 100 µM (inactive) | > 100 µM (inactive) | 10.8 µM (inactive) | > 100 µM (inactive) | 53.3 µM (inactive) | 20.7 µM (inactive) | > 100 µM (inactive) | > 100 µM (inactive) | 80 µM (inactive) | 8.69 µM (inactive) | 39.7 µM (inactive) | > 100 | 0.811 µM (active) | > 100 µM (inactive) | 72.8 µM (inactive) | 72.8 µM (inactive) | 73.3 µM (inactive) | 42.8 µM (inactive)
14 | CCOC(=O)c1[nH]c(Br)c(-c2ccc(Br)cc2)c1Br | 0.237 µM (active) | 0.851 µM (active) | 0.863 µM (active) | 0.307 µM (active) | 1.31 µM (inactive) | 0.38 µM (active) | 0.327 µM (active) | 0.395 µM (active) | 7.18 µM (inactive) | 1.14 µM (inactive) | 0.375 µM (active) | 0.454 µM (active) | 0.671 µM (active) | 0.516 | 0.543 µM (active) | 1.32 µM (inactive) | 0.555 µM (active) | 1.87 µM (inactive) | 0.366 µM (active) | 0.671 µM (active)
